# Measurements published in PubChem BioAssay (NCI).
#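 Interpolation was linear, between the two tested concentrations surrounding the appropriate level; five concentrations were tested over 48 hours in 96-well plates. GI50 is the concentration that inhibits growth by half. TGI is the concentration that stops growth completely.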
# Key:
# Assay in all cases: DTP human tumour cell line panel, 48 h
# COLO 205 colon = test system: COLO 205 colon
# EKVX NSCLC = test system: EKVX NSCLC
# A498 renal = test system: A498 renal
# SK-OV-3 ovarian = test system: SK-OV-3 ovarian
# A549 NSCLC = test system: A549 NSCLC
# SR leukemia = test system: SR leukemia
# SF-295 CNS = test system: SF-295 CNS
# MCF7 breast = test system: MCF7 breast
# OVCAR-5 ovarian = test system: OVCAR-5 ovarian
# BT-549 breast = test system: BT-549 breast
# MOLT-4 leukemia = test system: MOLT-4 leukemia
# OVCAR-8 ovarian = test system: OVCAR-8 ovarian
# UACC-62 melanoma = test system: UACC-62 melanoma
# K-562 leukemia = test system: K-562 leukemia
# MALME-3M melanoma = test system: MALME-3M melanoma
# PC-3 prostate = test system: PC-3 prostate
# SF-539 CNS = test system: SF-539 CNS
# HS 578T breast = test system: HS 578T breast
# NCI/ADR-RES ovarian = test system: NCI/ADR-RES ovarian
# OVCAR-4 ovarian = test system: OVCAR-4 ovarian
# NCI-H460 lung = test system: NCI-H460 lung
# TK-10 renal = test system: TK-10 renal
# HOP-62 NSCLC = test system: HOP-62 NSCLC
# SW-620 colon = test system: SW-620 colon
# HCT-116 colon = test system: HCT-116 colon
# HOP-92 NSCLC = test system: HOP-92 NSCLC
# RPMI-8226 leukemia = test system: RPMI-8226 leukemia
# RXF 393 renal = test system: RXF 393 renal
# KM12 colon = test system: KM12 colon
# HCT-15 colon = test system: HCT-15 colon
# OVCAR-3 ovarian = test system: OVCAR-3 ovarian
# HT29 colon = test system: HT29 colon
# SK-MEL-28 melanoma = test system: SK-MEL-28 melanoma
# SN12C renal = test system: SN12C renal
# M14 melanoma = test system: M14 melanoma
# NCI-H23 lung = test system: NCI-H23 lung
# HCC-2998 colon = test system: HCC-2998 colon
# SNB-75 CNS = test system: SNB-75 CNS
# T-47D breast = test system: T-47D breast
# CCRF-CEM leukemia = test system: CCRF-CEM leukemia
# 786-0 renal = test system: 786-0 renal
# SNB-19 CNS = test system: SNB-19 CNS
# NCI-H522 lung = test system: NCI-H522 lung
# UACC-257 melanoma = test system: UACC-257 melanoma
# IGROV1 ovarian = test system: IGROV1 ovarian
# DU-145 prostate = test system: DU-145 prostate
# LOX IMVI melanoma = test system: LOX IMVI melanoma
# ACHN renal = test system: ACHN renal
# SF-268 CNS = test system: SF-268 CNS
# NCI-H226 lung = test system: NCI-H226 lung
# MDA-MB-231 breast = test system: MDA-MB-231 breast
# U251 CNS = test system: U251 CNS
# SK-MEL-5 melanoma = test system: SK-MEL-5 melanoma
# HL-60(TB) leukemia = test system: HL-60(TB) leukemia
# SK-MEL-2 melanoma = test system: SK-MEL-2 melanoma
# MDA-MB-435 = test system: MDA-MB-435
# UO-31 renal = test system: UO-31 renal
smiles,measurement,setting,value
Cc1n(Cc2ccc3ccccc3n2)cc[n+]1Cc1ccc2ccccc2c1,GI50,COLO 205 colon,302 nM
same,TGI,COLO 205 colon,1100 nM
same,GI50,EKVX NSCLC,2170 nM
same,TGI,EKVX NSCLC,21000 nM
same,GI50,A498 renal,1840 nM
same,TGI,A498 renal,10200 nM
same,GI50,SK-OV-3 ovarian,1160 nM
same,TGI,SK-OV-3 ovarian,5030 nM
same,GI50,A549 NSCLC,1340 nM
same,TGI,A549 NSCLC,13400 nM
same,GI50,SR leukemia,565 nM
same,TGI,SR leukemia,3240 nM
same,GI50,SF-295 CNS,1470 nM
same,TGI,SF-295 CNS,7620 nM
same,GI50,MCF7 breast,526 nM
same,TGI,MCF7 breast,6080 nM
same,GI50,OVCAR-5 ovarian,1670 nM
same,TGI,OVCAR-5 ovarian,13000 nM
same,GI50,BT-549 breast,640 nM
same,TGI,BT-549 breast,4100 nM
same,GI50,MOLT-4 leukemia,948 nM
same,TGI,MOLT-4 leukemia,10600 nM
same,GI50,OVCAR-8 ovarian,1290 nM
same,TGI,OVCAR-8 ovarian,11200 nM
same,GI50,UACC-62 melanoma,933 nM
same,TGI,UACC-62 melanoma,3610 nM
same,GI50,K-562 leukemia,422 nM
same,TGI,K-562 leukemia,12900 nM
same,GI50,MALME-3M melanoma,394 nM
same,TGI,MALME-3M melanoma,2370 nM
same,GI50,PC-3 prostate,467 nM
same,TGI,PC-3 prostate,10600 nM
same,GI50,SF-539 CNS,579 nM
same,TGI,SF-539 CNS,8760 nM
same,GI50,HS 578T breast,1180 nM
same,TGI,HS 578T breast,9720 nM
same,GI50,NCI/ADR-RES ovarian,> 100000 nM
same,TGI,NCI/ADR-RES ovarian,> 100000 nM
same,GI50,OVCAR-4 ovarian,342 nM
same,TGI,OVCAR-4 ovarian,11300 nM
same,GI50,NCI-H460 lung,659 nM
same,TGI,NCI-H460 lung,11200 nM
same,GI50,TK-10 renal,1940 nM
same,TGI,TK-10 renal,7960 nM
same,GI50,HOP-62 NSCLC,1790 nM
same,TGI,HOP-62 NSCLC,7360 nM
same,GI50,SW-620 colon,1820 nM
same,TGI,SW-620 colon,13300 nM
same,GI50,HCT-116 colon,610 nM
same,TGI,HCT-116 colon,10400 nM
same,GI50,HOP-92 NSCLC,355 nM
same,TGI,HOP-92 NSCLC,3060 nM
same,GI50,RPMI-8226 leukemia,376 nM
same,TGI,RPMI-8226 leukemia,6630 nM
same,GI50,RXF 393 renal,3590 nM
same,TGI,RXF 393 renal,17400 nM
same,GI50,KM12 colon,488 nM
same,TGI,KM12 colon,3800 nM
same,GI50,HCT-15 colon,20400 nM
same,TGI,HCT-15 colon,> 75900 nM
same,GI50,OVCAR-3 ovarian,515 nM
same,TGI,OVCAR-3 ovarian,5100 nM
same,GI50,HT29 colon,454 nM
same,TGI,HT29 colon,9610 nM
same,GI50,SK-MEL-28 melanoma,975 nM
same,TGI,SK-MEL-28 melanoma,7000 nM
same,GI50,SN12C renal,518 nM
same,TGI,SN12C renal,11000 nM
same,GI50,M14 melanoma,1130 nM
same,TGI,M14 melanoma,10700 nM
same,GI50,NCI-H23 lung,935 nM
same,TGI,NCI-H23 lung,9810 nM
same,GI50,HCC-2998 colon,819 nM
same,TGI,HCC-2998 colon,7240 nM
same,GI50,SNB-75 CNS,322 nM
same,TGI,SNB-75 CNS,3390 nM
same,GI50,T-47D breast,371 nM
same,TGI,T-47D breast,7220 nM
same,GI50,CCRF-CEM leukemia,1070 nM
same,TGI,CCRF-CEM leukemia,11500 nM
same,GI50,786-0 renal,4360 nM
same,TGI,786-0 renal,18200 nM
same,GI50,SNB-19 CNS,438 nM
same,TGI,SNB-19 CNS,12100 nM
same,GI50,NCI-H522 lung,312 nM
same,TGI,NCI-H522 lung,1580 nM
same,GI50,UACC-257 melanoma,506 nM
same,TGI,UACC-257 melanoma,2890 nM
same,GI50,IGROV1 ovarian,1120 nM
same,TGI,IGROV1 ovarian,4760 nM
same,GI50,DU-145 prostate,2080 nM
same,TGI,DU-145 prostate,14800 nM
same,GI50,LOX IMVI melanoma,1050 nM
same,TGI,LOX IMVI melanoma,3770 nM
same,GI50,ACHN renal,9460 nM
same,TGI,ACHN renal,46400 nM
same,GI50,SF-268 CNS,784 nM
same,TGI,SF-268 CNS,14000 nM
same,GI50,NCI-H226 lung,965 nM
same,TGI,NCI-H226 lung,8360 nM
same,GI50,MDA-MB-231 breast,665 nM
same,TGI,MDA-MB-231 breast,4080 nM
same,GI50,U251 CNS,384 nM
same,TGI,U251 CNS,12200 nM
same,GI50,SK-MEL-5 melanoma,533 nM
same,TGI,SK-MEL-5 melanoma,1610 nM
same,GI50,HL-60(TB) leukemia,344 nM
same,TGI,HL-60(TB) leukemia,1460 nM
same,GI50,SK-MEL-2 melanoma,522 nM
same,TGI,SK-MEL-2 melanoma,2990 nM
same,GI50,MDA-MB-435,412 nM
same,TGI,MDA-MB-435,2690 nM
same,GI50,UO-31 renal,13600 nM
same,TGI,UO-31 renal,36100 nM
